In US20240400583A1, “TRICYCLIC SULFAMIDES AND SULTAMS” (Merck Sharp & Dohme LLC, priority 2021, published 2024):

Columns and labels:
DCAF15 = target: T1, DCAF15 (Homo sapiens, UniProt Q66K64, DEL276-383); test: DCAF15 Displacement Assay (displacement of probe PT7795, FRET); type: binding; settings: competition with 300 nM PT7795 on DDA1-DDB1ΔB-DCAF15Δpro triplex, 18 hours incubation, FRET 665/615
T1 construct: made in house; host or cells: Sf9 (baculovirus, Bac-to-Bac)
Source text: (§1) Proteins used for the assays were as follows: Human DDA1 (UniProt:Q9BW61), DDB1 (UniPro:Q16531), and DCAF15 (UniProt:Q66K64) coding sequences were cloned into pFastBac1 vectors and were co-expressed in Sf9 cells using Bac-to-Bac baculovirus expression system (Thermo Fisher Scientific). The expression construct for DCAF15 includes a N-terminal His6-tag to facilitate the purification. The atrophin-1 homology region of DCAF15 (amino acid residues 276-383) was excised (Apro, originally to facilitate crystallization). Triplex of DDA1-DDB1ΔB-DCAF15Apro, which has the BPB domain (aa 396 to 705) excised and replaced with a GNGNSG linker, was used in all the kinetic measurements because of the higher yield. R^1R^2 of RBM39 (aa 150 to 331; UniProt: Q14498) contained a C-terminal FLAG tag used in the DCAF15/RBM39 complex formation assay. DCAF15 Displacement Assay (Displacement FRET KD)
The previously described procedure was followed (See X. Du, et al., “Structural Basis and Kinetic Pathway of RBM39 Recruitment to DCAF15 by a Sulfonamide Molecular Glue E7820”, Structure, 27, 1625-1633.e3, 2019). Synthesis of the probe PT7795 is described in the article.
Binding of PT7795 to DDA1-DDB1ΔB-DCAF15Apro was measured by the FRET signal between europium-labeled anti-His antibody (AD0205, Perkin Elmer) that is associated with His-tagged DCAF15 and ALX647 moiety in PT7795. The concentration of PT7795 was varied from 2.3 nM to 1000 nM in 16 wells, each containing 25 mM HEPES pH7.5, 100 mM NaCl, 0.1 mg/ml BSA, 0.005% Tween 20, 0.5 mM TCEP, 4% DMSO, 0.5 nM europium-labeled anti-His antibody, and 10 nM triplex of DDA1-DDB1 DB-DCAF15 Apro. After equilibrating for 2-3 hours at 4° C., the plate was removed from the incubator, briefly spun, then read on a Spark 10 (Tecan) at the excitation/emission wavelength of 340 nm/615 nm and 340 nm/665 nm. To obtain Kd, the ratio of 665/615 readings was fitted to Equation 1, where F stands for the ratio of 665/615 […].
Binding of compounds in this disclosure to DCAF15 was measured in a competition by the displacement of PT7795. The concentration of PT7795 was kept at 300 nM while the concentration of a compound was varied from 0.01 to 100 μM. The incubation time was increased to 18 hours for enhanced signal to noise level. To obtain IC50, the ratio of 665/615 readings was fitted to Equation 2, where n is Hill slope.

[1] = target: T2, DCAF15 RBM39 ternary complex (Homo sapiens, UniProt Q14498+Q66K64, DEL276-383); test: DCAF15 RBM39 Ternary Complex Formation Assay; type: binding; settings: apparent EC50 for compound-induced complex formation, 10 nM DCAF15 triplex, 50 nM RBM39 R1R2, FRET 665/615
T2 construct: RBM39 (aa 150 to 331; UniProt: Q14498); TEV cleavage site (pGEX4T3 vector); made in house; host or cells: Sf9 (baculovirus) for the triplex; E. coli for the RBM39 fragment according to b294
Source text: as §1
His-tagged DDA1-DDB1ΔB-DCAFISΔpro triplex and RIR2 with a C-terminal FLAG were used in the assay and compound-induced complex formation was monitored through resonance transfer between europium-labeled anti-His antibody and APC-labeled anti-FLAG antibody (AD0059F, Perkin Elmer).

SMILES | IC50 (DCAF15) | EC50 [1]
CC(C)(C)OC(=O)N1CCCC(CN2Cc3cc(Cl)c4c(Cl)c(CCCC(N)=O)[nH]c4c3NS2(=O)=O)C1 (stereo not drawn) [Compound 22, tert-butyl 3-((8-(4-amino-4-oxobutyl)-6,7-dichloro-2,2-dioxido-4,9-dihydro-[1,2,6]thiadiazino[4,3-g]indol-3(1H)-yl)methyl)piperidine-1-carboxylate] | 5780 nM | > 25000 nM
CCOC(=O)c1[nH]c2c3c(cc(Cl)c2c1Cl)CN(CCCOC)S(=O)(=O)N3 [Compound 14, ethyl 6,7-dichloro-3-(3-methoxypropyl)-1,3,4,9-tetrahydro-[1,2,6]thiadiazino[4,3-g]indole-8-carboxylate 2,2-dioxide] | 2050 nM | 2510 nM
COCCCCCOCCCN1Cc2cc(Cl)c3c(Cl)c[nH]c3c2NS1(=O)=O [Compound 3, 6,7-dichloro-3-(3-((5-methoxypentyl)oxy)propyl)-1,3,4,9-tetrahydro-[1,2,6]thiadiazino[4,3-g]indole 2,2-dioxide] | 2500 nM | 21.4 nM
CNC(=O)c1[nH]c2c3c(cc(Cl)c2c1Cl)CN(CC1CCCNC1)S(=O)(=O)N3 (stereo not drawn) [Compound 10, 6,7-dichloro-N-methyl-3-(piperidin-3-ylmethyl)-1,3,4,9-tetrahydro-[1,2,6]thiadiazino[4,3-g]indole-8-carboxamide 2,2-dioxide] | 2090 nM | > 25000 nM
CC(=O)N1CCCC(CN2Cc3cc(Cl)c4c(Cl)c(CCCC(N)=O)[nH]c4c3NS2(=O)=O)C1 (stereo not drawn) [Compound 20, 4-(3-((1-acetylpiperidin-3-yl)methyl)-6,7-dichloro-2,2-dioxido-1,3,4,9-tetrahydro-[1,2,6]thiadiazino[4,3-g]indol-8-yl)butanamide] | 105 nM | > 25000 nM
O=C(O)CCCc1[nH]c2c3c(cc(Cl)c2c1Cl)CN(CC1CCCNC1)S(=O)(=O)N3 (stereo not drawn) [Compound 23, 4-(6,7-dichloro-2,2-dioxido-3-(piperidin-3-ylmethyl)-1,3,4,9-tetrahydro-[1,2,6]thiadiazino[4,3-g]indol-8-yl)butanoic acid] | 277 nM | > 25000 nM
CNC(=O)c1[nH]c2c3c(cc(Cl)c2c1Cl)CN(CC1CCCN(C(=O)OC(C)(C)C)C1)S(=O)(=O)N3 (stereo not drawn) [Compound 11, tert-butyl 3-((6,7-dichloro-8-(methylcarbamoyl)-2,2-dioxido-4,9-dihydro-[1,2,6]thiadiazino[4,3-g]indol-3(1H)-yl)methyl)piperidine-1-carboxylate] | 1440 nM | > 25000 nM
COCCCN1Cc2cc(Cl)c3c(Cl)c(CCCC(N)=O)[nH]c3c2NS1(=O)=O [Compound 19, 4-(6,7-dichloro-3-(3-methoxypropyl)-2,2-dioxido-1,3,4,9-tetrahydro-[1,2,6]thiadiazino[4,3-g]indol-8-yl)butanamide] | 824 nM | > 25000 nM
COC(=O)CCCc1[nH]c2c3c(cc(Cl)c2c1Cl)CN(Cc1ccnc(O)c1)S(=O)(=O)N3 [Compound 24, methyl 4-(6,7-dichloro-3-((2-hydroxypyridin-4-yl)methyl)-2,2-dioxido-1,3,4,9-tetrahydro-[1,2,6]thiadiazino[4,3-g]indol-8-yl)butanoate] | 317 nM | > 25000 nM
COCCOCCOCCCN1Cc2cc(Cl)c3c(Cl)c[nH]c3c2NS1(=O)=O [Compound 2, 6,7-dichloro-3-(3-(2-(2-methoxyethoxy)ethoxy)propyl)-1,3,4,9-tetrahydro-[1,2,6]thiadiazino[4,3-g]indole 2,2-dioxide] | 25000 nM | 247 nM
COCCOCCCN1Cc2cc(Cl)c3c(Cl)c[nH]c3c2NS1(=O)=O [Compound 1, 6,7-dichloro-3-(3-(2-methoxyethoxy)propyl)-1,3,4,9-tetrahydro-[1,2,6]thiadiazino[4,3-g]indole 2,2-dioxide] | 1420 nM | 12.7 nM
COCCCCC(=O)N1CCC(CN2Cc3cc(Cl)c4c(Cl)c[nH]c4c3NS2(=O)=O)CC1 [Compound 6, 1-(4-((6,7-dichloro-2,2-dioxido-4,9-dihydro-[1,2,6]thiadiazino[4,3-g]indol-3(1H)-yl)methyl)piperidin-1-yl)-5-methoxypentan-1-one] | 156 nM | 4.3 nM
NCCCCC(=O)N1CCC(CN2Cc3cc(Cl)c4c(Cl)c[nH]c4c3NS2(=O)=O)CC1 [Compound 9, 5-amino-1-(4-((6,7-dichloro-2,2-dioxido-4,9-dihydro-[1,2,6]thiadiazino[4,3-g]indol-3(1H)-yl)methyl)piperidin-1-yl)pentan-1-one] | 244 nM | 4.9 nM
COCCCN1Cc2cc(Cl)c3c(Cl)c(C(=O)OC)[nH]c3c2NS1(=O)=O [Compound 13, methyl 6,7-dichloro-3-(3-methoxypropyl)-1,3,4,9-tetrahydro-[1,2,6]thiadiazino[4,3-g]indole-8-carboxylate 2,2-dioxide] | 1300 nM | > 25000 nM
CC(C)(C)OC(=O)NCCCCC(=O)N1CCC(CN2Cc3cc(Cl)c4c(Cl)c[nH]c4c3NS2(=O)=O)CC1 [Compound 8, tert-butyl (5-(4-((6,7-dichloro-2,2-dioxido-4,9-dihydro-[1,2,6]thiadiazino[4,3-g]indol-3(1H)-yl)methyl)piperidin-1-yl)-5-oxopentyl)carbamate] | 261 nM | 4.5 nM
CNC(=O)c1[nH]c2c3c(cc(Cl)c2c1Cl)CN(CCCOC)S(=O)(=O)N3 [Compound 15, 6,7-dichloro-3-(3-methoxypropyl)-N-methyl-1,3,4,9-tetrahydro-[1,2,6]thiadiazino[4,3-g]indole-8-carboxamide 2,2-dioxide] | 1280 nM | > 25000 nM
COCCCN1Cc2cc(Cl)c3c(Cl)c(CCCC(=O)O)[nH]c3c2NS1(=O)=O [Compound 18, 4-(6,7-dichloro-3-(3-methoxypropyl)-2,2-dioxido-1,3,4,9-tetrahydro-[1,2,6]thiadiazino[4,3-g]indol-8-yl)butanoic acid] | 652 nM | > 25000 nM
COCCOCC(=O)N1CCCC(CN2Cc3cc(Cl)c4c(Cl)c[nH]c4c3NS2(=O)=O)C1 (stereo not drawn) [Compound 5, 1-(3-((6,7-dichloro-2,2-dioxido-4,9-dihydro-[1,2,6]thiadiazino[4,3-g]indol-3(1H)-yl)methyl)piperidin-1-yl)-2-(2-methoxyethoxy)ethan-1-one] | 98 nM | 7.8 nM
COCCOCC(=O)N1CCC(CN2Cc3cc(Cl)c4c(Cl)c[nH]c4c3NS2(=O)=O)CC1 [Compound 4, 1-(4-((6,7-dichloro-2,2-dioxido-4,9-dihydro-[1,2,6]thiadiazino[4,3-g]indol-3(1H)-yl)methyl)piperidin-1-yl)-2-(2-methoxyethoxy)ethan-1-one] | 200 nM | 4.3 nM
COCCCCC(=O)N1CCCC(CN2Cc3cc(Cl)c4c(Cl)c[nH]c4c3NS2(=O)=O)C1 (stereo not drawn) [Compound 7, 1-(3-((6,7-dichloro-2,2-dioxido-4,9-dihydro-[1,2,6]thiadiazino[4,3-g]indol-3(1H)-yl)methyl)piperidin-1-yl)-5-methoxypentan-1-one] | 480 nM | 10.6 nM
CNC(=O)c1[nH]c2c3c(cc(Cl)c2c1Cl)CN(CC1CCCN(C(C)=O)C1)S(=O)(=O)N3 (stereo not drawn) [Compound 12, 3-((1-acetylpiperidin-3-yl)methyl)-6,7-dichloro-N-methyl-1,3,4,9-tetrahydro-[1,2,6]thiadiazino[4,3-g]indole-8-carboxamide 2,2-dioxide] | 679 nM | > 25000 nM
